Experimental data published in US7763602B2, “Pyrrole derivatives as antimycobacterial compounds” (priority 2002, dated 2010).
≈ marks a conversion by molar mass, not a printed value. Where two headings read alike, the source gives them in different places.

Key:
[1] = test system: M. tuberculosis H37Rv ATCC 27294; test: In vitro growth inhibition assay, BACTEC 460 TB system; type: cell-based, Mycobacterium tuberculosis; set-up: key: +: If ΔGI of test vial is less than that of the control vial the culture was sensitive to the test compound; conditions: final concentration 6.25 μg/ml
[2] = test system: M. tuberculosis 27294; test: In vitro agar dilution assay (MIC), reference strain; type: cell-based, Mycobacterium tuberculosis; conditions: for MIC: Mycobacterium tuberculosis, 27294, Table I, read-out: MIC (μg/ml) against M. tuberculosis-27294; for MIC (μg/ml) against M. tuberculosis-27294: Table I
[3] = test system: M. tuberculosis clinical isolates, sensitive; test: microbe, parasite or virus in culture; type: cell-based, Mycobacterium tuberculosis; conditions: for MIC: Mycobacterium tuberculosis; for MIC (μg/ml) against Clinical isolates Sensitive: Table I, agar dilution
[4] = test system: M. avium-intracellulare complex; test: In vitro agar dilution assay (MIC), M. avium-intracellulare complex; type: cell-based; conditions: Mycobacterium avium-intracellulare; Table II; 13 strains; read-out: MIC (μg/ml) M. avium-intracellulare complex (n = 13)
[5] = test system: M. fortuitum; test: In vitro agar dilution assay (MIC), M. fortuitum; type: cell-based, Mycobacterium fortuitum; conditions: Mycolicibacterium fortuitum; Table II; 8 strains; read-out: MIC (μg/ml) M. fortuitum (n = 8)
[6] = test system: M. kansasii; test: In vitro agar dilution assay (MIC), M. kansasii; type: cell-based; conditions: Mycobacterium kansasii; Table II; 2 strains; read-out: MIC (μg/ml) M. kansasii (n = 2)
[7] = Acute toxicity study in mice; type: in vivo, Swiss albino mice; conditions: for LD0: single oral dose, mice
Description: Compound No. 3 of formula (I) was administered, as a single oral dose, in Swiss albino mice. Two dose levels of 500 and 2000 mg/kg were employed. […] Therefore LD0 was >2000 mg/kg by oral route in mice. […] Similarly in compound No. 12 of Formula I, LD0 was >500 mg/kg by oral route in mice.

[8] = test system: M. tuberculosis H37Rv ATCC 27294; test: Murine model of pulmonary tuberculosis, treated 01 day post-infection; conditions: for Mean Log10 No. of CFU Lung / Mean Log10 No. of CFU Spleen: 5 day/week for 4 week; for Mean Log10 No. of reduction Lung / Mean Log10 No. of reduction Spleen / Mean Log10 no. of reduction Lung / Mean Log10 no. of reduction Spleen: difference from early controls
[9] = test system: M. tuberculosis H37Rv ATCC 27294; test: Murine model of pulmonary tuberculosis, treated 14 days post-infection; conditions: Table IV; for Mean Log10 No. of CFU Lung / Mean Log10 No. of CFU Spleen: 5 day/week for 4 week, treated 14 days post-infection; for Mean Log10 no. of reduction Lung / Mean Log10 no. of reduction Spleen: difference from early controls
[10] = test system: M. tuberculosis strain 103471; conditions: literature values; cited from earlier work
[11] = read-out: MIC (μg/ml) M. tuberculosis Sensitive (n = 17)
[12] = read-out: MIC (μg/ml) against Clinical isolates Sensitive
[13] = Table VI, 12.5 mg/kg, treated 01 day post-infection
[14] = Table VI, 25 mg/kg, treated 01 day post-infection
[15] = Table VI, 50 mg/kg, treated 01 day post-infection
[16] = Table III, 12.5 mg/kg gavage, treatment from 1 day after infection
[17] = Table III, 25 mg/kg gavage, treatment from 1 day after infection
[18] = Table III, 50 mg/kg gavage, treatment from 1 day after infection

SMILES: Cc1c(CN2CCN(c3ncccn3)CC2)cc(-c2ccc(Cl)cc2)n1-c1ccc(Cl)cc1 [compound 5, 1-{[1,5-bis(4-chlorophenyl)-2-methylpyrrol-3-yl]methyl}-4-(2-pyrimidyl) piperazine]
- Growth inhibition of M. tuberculosis 27294 [1]: +
- MIC [2]: 0.25 µg/mL (≈ 0.523 µM)
- MIC [3, 11]: 0.5 to 1 µg/mL (≈ 1.05 to 2.09 µM)
- MIC [3, 12]: 0.5 to 1 µg/mL (≈ 1.05 to 2.09 µM)
- MIC [4]: 4 to 8 µg/mL (≈ 8.36 to 16.7 µM)
- MIC [5]: 8 to 16 µg/mL (≈ 16.7 to 33.4 µM)
- MIC [6]: 8 µg/mL (≈ 16.7 µM)
- melting point: 184 to 186 °C

SMILES: Cc1cc(CN2CCN(c3ccccn3)CC2)c(-c2ccccc2)n1-c1ccccn1
- melting point: 135 to 137 °C

SMILES: COc1ccccc1N1CCN(Cc2cc(C)n(-c3ccc(F)cc3F)c2-c2ccccc2)CC1 [compound 56, 1-{[1-(2,4-difluorophenyl)-5-methyl-2-phenylpyrrol-3-yl]methyl}-4-(2-methoxyphenyl) piperazine]
- Growth inhibition of M. tuberculosis 27294 [1]: +
- MIC [2]: 8 µg/mL (≈ 16.9 µM)
- MIC [3, 12]: 8 µg/mL (≈ 16.9 µM)
- melting point: 60 to 62 °C

SMILES: Cc1cc(CN2CCN(C(c3ccccc3)c3ccccc3)CC2)c(-c2ccc(Cl)cc2)n1-c1ccc(F)cc1F
- melting point: 76 to 78 °C

SMILES: Cc1c(CN2CCN(c3cccc(C(F)(F)F)c3)CC2)cc(-c2ccccc2)n1NC(=O)c1ccncc1 [Compound No. 12, N-(3-{[4-(3-trifluoromethylphenyl)piperazinyl]methyl}-2-methyl-5-phenylpyrrolyl)-4-pyridylcarboxamide]
- Growth inhibition of M. tuberculosis 27294 [1]: +
- MIC (μg/ml) against M. tuberculosis-27294 [2]: 0.25 µg/mL (≈ 0.481 µM)
- MIC (μg/ml) against Clinical isolates Sensitive [3]: 0.25 to 0.5 µg/mL
- LD0 ([7]; observed for 14 days): > 500 mg/kg
- Mean Log10 No. of CFU Lung [8, 13]: 2.34 ± 0.18
- Mean Log10 No. of CFU Spleen [8, 13]: 2.26 ± 0.21
- Mean Log10 No. of reduction Lung ([8]; Table VI, 12.5 mg/kg): 2.23
- Mean Log10 No. of reduction Spleen ([8]; Table VI, 12.5 mg/kg): 2.43
- Mean Log10 No. of CFU Lung [8, 14]: 2.1 ± 0.24
- Mean Log10 No. of CFU Spleen [8, 14]: 2.13 ± 0.28
- Mean Log10 No. of reduction Lung ([8]; Table VI, 25 mg/kg): 2.47
- Mean Log10 No. of reduction Spleen ([8]; Table VI, 25 mg/kg): 2.56
- Mean Log10 No. of CFU Lung [8, 15]: 1.89 ± 0.24
- Mean Log10 No. of CFU Spleen [8, 15]: 1.94 ± 0.23
- Mean Log10 No. of reduction Lung ([8]; Table VI, 50 mg/kg): 2.68
- Mean Log10 No. of reduction Spleen ([8]; Table VI, 50 mg/kg): 2.75
- Mean Log10 No. of CFU Lung ([9]; 12.5 mg/kg): 4.18 ± 0.38
- Mean Log10 No. of CFU Spleen ([9]; 12.5 mg/kg): 4.41 ± 0.26
- Mean Log10 no. of reduction Lung ([9]; 12.5 mg/kg): 1.41
- Mean Log10 no. of reduction Spleen ([9]; 12.5 mg/kg): 1.54
- Mean Log10 No. of CFU Lung ([9]; 25 mg/kg): 2.87 ± 0.15
- Mean Log10 No. of CFU Spleen ([9]; 25 mg/kg): 2.83 ± 0.29
- Mean Log10 no. of reduction Lung ([9]; 25 mg/kg): 2.72
- Mean Log10 no. of reduction Spleen ([9]; 25 mg/kg): 3.12
- Mean Log10 No. of CFU Lung ([9]; 50 mg/kg): 2.74 ± 0.36
- Mean Log10 No. of CFU Spleen ([9]; 50 mg/kg): 2.78 ± 0.32
- Mean Log10 no. of reduction Lung ([9]; 50 mg/kg): 2.85
- Mean Log10 no. of reduction Spleen ([9]; 50 mg/kg): 3.17

SMILES: Cc1c(CN2CCN(c3cccc(C(F)(F)F)c3)CC2)cc(-c2ccc(Cl)cc2)n1-c1ccc(Cl)cc1 [Compound No. 3, 1-{[1,5-bis(4-chlorophenyl)-2-methylpyrrol-3-yl]methyl}-4-(3-trifluoromethylphenyl)piperazine]
- Growth inhibition of M. tuberculosis 27294 [1]: +
- MIC [2]: 0.125 µg/mL (≈ 0.23 µM)
- MIC [3, 11]: 0.125 to 0.25 µg/mL (≈ 0.23 to 0.459 µM)
- MIC [3, 12]: 0.125 to 0.25 µg/mL (≈ 0.23 to 0.459 µM)
- MIC [4]: 4 to 8 µg/mL (≈ 7.35 to 14.7 µM)
- MIC [5]: 4 to 8 µg/mL (≈ 7.35 to 14.7 µM)
- MIC [6]: 4 µg/mL (≈ 7.35 µM)
- Clinical symptoms or mortality ([7]; single oral dose 500 and 2000 mg/kg, Swiss albino mice, observed for 14 days): No clinical symptom or mortality was observed
- Pathological changes in organs ([7]; single oral dose 500 and 2000 mg/kg, mice sacrificed on day 15): no pathological changes were seen in any organ
- LD0 ([7]; observed for 14 days): > 2000 mg/kg
- Mean Log10 No. of CFU Lung [8, 16]: 2.63
- Mean Log10 No. of CFU Spleen [8, 16]: 2.6
- Mean Log10 no. of reduction Lung ([8]; Table III, 12.5 mg/kg): 1.85
- Mean Log10 no. of reduction Spleen ([8]; Table III, 12.5 mg/kg): 2.03
- Mean Log10 No. of CFU Lung [8, 17]: 2.13
- Mean Log10 No. of CFU Spleen [8, 17]: 2.07
- Mean Log10 no. of reduction Lung ([8]; Table III, 25 mg/kg): 2.35
- Mean Log10 no. of reduction Spleen ([8]; Table III, 25 mg/kg): 2.29
- Mean Log10 No. of CFU Lung [8, 18]: 1.97
- Mean Log10 No. of CFU Spleen [8, 18]: 1.94
- Mean Log10 no. of reduction Lung ([8]; Table III, 50 mg/kg): 2.51
- Mean Log10 no. of reduction Spleen ([8]; Table III, 50 mg/kg): 2.64

SMILES: COc1ccccc1N1CCN(Cc2cc(-c3ccc(Cl)cc3)n(-c3ccc(Cl)cc3)c2C)CC1 [Compound No. 2, 1-{[1,5-bis(4-chlorophenyl)-2-methylpyrrol-3-yl]methyl}-4-(2-methoxyphenyl) piperazine]
- Growth inhibition of M. tuberculosis 27294 [1]: +
- MIC [2]: 0.25 µg/mL (≈ 0.494 µM)
- MIC [3, 11]: 0.125 to 0.25 µg/mL (≈ 0.247 to 0.494 µM)
- MIC [3, 12]: 0.125 to 0.25 µg/mL (≈ 0.247 to 0.494 µM)
- MIC [4]: 4 to 8 µg/mL (≈ 7.9 to 15.8 µM)
- MIC [5]: 8 to 16 µg/mL (≈ 15.8 to 31.6 µM)
- MIC [6]: 8 µg/mL (≈ 15.8 µM)

SMILES: Cc1c(CN2CCN(c3ccccn3)CC2)cc(-c2ccccc2)n1-c1ccc(F)cc1F [compound 54, 1-{[1-(2,4-difluorophenyl)-2-methyl-5-phenylpyrrol-3-yl]methyl}-4-(2-pyridyl) piperazine]
- Growth inhibition of M. tuberculosis 27294 [1]: +
- MIC [2]: 2 µg/mL (≈ 4.5 µM)
- MIC [3, 12]: 4 µg/mL (≈ 9 µM)
- melting point: 144 to 146 °C

SMILES: Cc1c(CN2CCN(C)CC2)cc(-c2ccc(Cl)cc2)n1-c1ccc(Cl)cc1 [BM 212]
- MIC value (μg/ml) against the M. tuberculosis strain 103471 [10]: 0.70 µg/mL (≈ 1.69 µM)

SMILES: Cc1c(CN2CCN(Cc3ccc4c(c3)OCO4)CC2)cc(-c2ccc(Cl)cc2)n1-c1ccc(Cl)cc1 [Compound No. 8, 5-[(4-{[1,5-bis(4-chlorophenyl)-2-methylpyrrol-3-yl]methyl}piperazinyl)methyl]-2H-benzo[d]1,3-dioxolane]
- Growth inhibition of M. tuberculosis 27294 [1]: +
- MIC (μg/ml) against M. tuberculosis-27294 [2]: 1.0 µg/mL (≈ 1.87 µM)
- MIC (μg/ml) against Clinical isolates Sensitive [3]: 0.5 to 1.0 µg/mL

SMILES: CCC(CO)n1c(-c2ccccc2)cc(CN2CCSCC2)c1C (stereo not shown) [compound 91, 2-[2-methyl-5-phenyl-3-(1,4-thiazaperhydroin-4-ylmethyl)pyrrolyl]butan-1-ol]
- Growth inhibition of M. tuberculosis 27294 [1]: +
- MIC (μg/ml) against M. tuberculosis-27294 [2]: 4.0 µg/mL (≈ 11.6 µM)
- MIC (μg/ml) against Clinical isolates Sensitive [3]: 4.0 to 8.0 µg/mL

SMILES: Cc1cc(CN2CCN(c3ccccn3)CC2)c(-c2ccccc2)n1NC(=O)c1cnccn1 [compound 34, N-(3-{[4-(2-pyridyl)piperazinyl]methyl}-5-methyl-2-phenylpyrrolyl)pyrazin-2-ylcarboxamide]
- Growth inhibition of M. tuberculosis 27294 [1]: +
- MIC (μg/ml) against M. tuberculosis-27294 [2]: 16.0 µg/mL (≈ 35.3 µM)
- MIC (μg/ml) against Clinical isolates Sensitive [3]: 16.0-16.0 μg/ml

SMILES: Cc1c(CN2CCN(Cc3ccccc3)CC2)cc(-c2ccccc2)n1NC(=O)c1ccncc1 [compound 15, N-(2-methyl-5-phenyl-3-{[4-benzylpiperazinyl]methyl}pyrrolyl)-4-pyridylcarboxamide]
- Growth inhibition of M. tuberculosis 27294 [1]: +
- MIC (μg/ml) against M. tuberculosis-27294 [2]: 0.5 µg/mL (≈ 1.07 µM)
- MIC (μg/ml) against Clinical isolates Sensitive [3]: 0.5 to 1.0 µg/mL

SMILES: Cc1c(CN2CCN(c3ccc(F)cc3)CC2)cc(-c2ccc(Cl)cc2)n1-c1ccc(Cl)cc1 [Compound No. 1, 1-{[1,5-bis(4-chlorophenyl)-2-methylpyrrol-3-yl]methyl}-4-(4-fluorophenyl) piperazine]
- Growth inhibition of M. tuberculosis 27294 [1]: +
- MIC [2]: 0.5 µg/mL (≈ 1.01 µM)
- MIC [3, 12]: 0.5 to 2 µg/mL (≈ 1.01 to 4.04 µM)
